PMC3489161 (Pharmaceutical research, 2011)
Values joined by “and” are separate entries in the source; they are usually repeats but may differ in a detail not shown here. Equal values may be shown once. “Also recorded” adds a separate entry of the source.

Key:
[1] = test system: brain metastases of HER2+ breast cancer; conditions: monotherapy; cited from earlier work
[2] = test system: 231-BR-HER2 lapatinib-treated lines and 231-BR-HER2 non-treated lines; test: Clonogenic assay of ex vivo cultures; type: cell-based, human; conditions: 4 μM lapatinib, stained on day 12
[3] = cited from earlier work
[4] = 14C-lapatinib radiochemical integrity in plasma and tissues by HPLC; type: in vivo, mice
[5] = test system: HER2; test: Western blot of HER2 expression in ex vivo cultures; type: cell-based, human; conditions: 100 mg/kg p.o. twice daily for 24 days
[6] = due to active efflux transport at the BBB; cited from earlier work
[7] = mice; cited from earlier work
[8] = test system: 231-BR-HER2; conditions: read-out: IC50 for inhibition of 231-BR-HER2 proliferation in vitro; cited from earlier work
[9] = 14C-lapatinib distribution after intravenous dosing; type: in vivo, mice; conditions: 10 mg/kg i.v., 30 min
[10] = test system: 231-BR-HER2 lapatinib-treated lines and 231-BR-HER2 non-treated lines; test: Cell viability; type: cell-based, human; conditions: 8 or 10 μM lapatinib, 72 hours
[11] = test system: HER2+ brain metastases; conditions: cited from earlier work
[12] = female, NuNu, mouse, in vivo

CS(=O)(=O)CCNCc1ccc(-c2ccc3ncnc(Nc4ccc(OCc5cccc(F)c5)c(Cl)c4)c3c2)o1 [lapatinib, N-{3-chloro-4-[(3-fluorobenzyl)oxy]phenyl}-6-[5-({[2-(methylsulfonyl)ethyl]amino}methyl)-2-furyl]-4-quinazolinamine]
Patients achieving an objective response [1]: 6%
Patients experiencing a >20% reduction in lesion volume [1]: 21%
Inhibitory effect in clonogenic assays [2]: comparable between lapatinib- and vehicle-treated cultures
Volume of distribution [3]: 9.5 L/kg
Plasma 14C tracer confirmed as intact 14C-lapatinib ([4]; 30 min after 10 mg/kg i.v.): > 98%
Tracer intact in plasma and tissues by HPLC ([4]; 2 hours after oral administration, 100 mg/kg): > 92%
HER2 expression throughout in vivo treatment and ex vivo culture [5]: maintained
Brain uptake as % of plasma [6]: < 10%
Plasma half-life [7]: 4 to 6 h
IC50 [8]: 8 µM
Average brain metastasis concentration less than in peripheral tissues [9]: 1-2 orders of magnitude
Sensitivity of ex vivo cell lines to lapatinib, viability by MTT [10]: sensitive to lapatinib inhibition; also recorded: remain sensitive to lapatinib in vitro
Reduction in formation/number of large brain metastases ([11]; mice, same dose and tumor model): ~50% and 50-53%
Number of micrometastases ([11]; mice): no change
Extent of phosphorylated HER2 staining within HER2+ brain metastases ([11]; treatment initiated early): decreased
Concentration in some brain metastases as % of that in peripheral lesions [12]: ~50%
Share of brain metastases with elevated 14C-lapatinib delivery [12]: > 85%
Calculated % dose to brain ([12]; po, 100 mg/kg): 0.0025%
